From paper PMC10765413, “Correlating Conformational Equilibria with Catalysis in the Electron Bifurcating EtfABCX of Thermotoga maritima” (Biochemistry, 2023)
Where two headings read alike, the source gives them in different places.

How the values were obtained:
EtfABCX [1] = target: T1, EtfABCX (Thermotoga maritima, UniProt Q9X1L6+Q9X1L7+Q9X1L8); assay: FAD released by […] SDS and quantified by absorbance; type: binding; conditions: co-purified; BF-FAD in EtfA, ET-FAD in EtfB, QR-FAD in EtfC
T1 construct: gene TM_1530; operon in pET-21a(+), N-terminal 9xHis tag, E. coli BL21(DE3) deltaiscR, anaerobic purification; superdimer (ABCX)2, 257 kDa, three FAD per supermonomer; with Ferredoxin-like protein FixX (EtfX; two [4Fe-4S] clusters)

EtfAB [2] = target: T2, EtfAB (Thermotoga maritima, UniProt Q9X1L6+Q9X1L7); assay: FAD released by […] SDS and quantified by absorbance; type: binding; conditions: co-purified; BF-FAD site in EtfA and ET-FAD site in EtfB
T2 construct: gene TM_1530; recombinant EtfAB heterodimer from E. coli BL21(DE3) deltaiscR, 9xHis tag, 69 kDa expected, two FAD per heterodimer, purified anaerobically

EtfAB [3] = target: T2, EtfAB; assay: anaerobic SEC-SAXS with in-line UV-visible spectroscopy (flavin reduction, compaction); type: binding; conditions: 20 mM Tris-HCl pH 8.0, 200 mM NaCl, room temperature
EtfABCX [4] = target: T1, EtfABCX; assay: anaerobic SEC-MALS-SAXS with in-line UV-visible spectroscopy; type: binding; conditions: NAD+ in running buffer, 20 mM Tris-HCl pH 8.0, 200 mM NaCl, 0.01% DDM
[5] = target: Thermotoga maritima Fix/EtfABCX supermonomer (ABCX heterotetramer protomer) (Thermotoga maritima); assay: SEC-MALS + other: SEC-SAXS; anaerobic SEC-MALS-SAXS of purified EtfABCX; KW-803 column, room temperature, 0.65 mL/min; 20 mM Tris-HCl pH 8.0, 200 mM NaCl with 0.01% DDM (also buffer only); no additive, NADH, NAD+ or DT in the running buffer
[6] = target: Thermotoga maritima Fix/EtfABCX supermonomer (ABCX heterotetramer protomer) (Thermotoga maritima); assay: as above; remark: listed apart in the source

T2 sequence (Q9X1L6 entry or part of it): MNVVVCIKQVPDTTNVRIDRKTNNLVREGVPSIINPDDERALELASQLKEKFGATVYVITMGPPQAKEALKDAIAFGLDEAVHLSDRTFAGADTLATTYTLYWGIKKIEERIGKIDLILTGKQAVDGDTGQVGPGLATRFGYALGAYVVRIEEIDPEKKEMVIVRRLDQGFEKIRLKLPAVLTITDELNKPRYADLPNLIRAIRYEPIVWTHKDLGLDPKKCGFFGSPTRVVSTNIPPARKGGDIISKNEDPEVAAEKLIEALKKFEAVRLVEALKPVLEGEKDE
T2 sequence (Q9X1L7 entry or part of it): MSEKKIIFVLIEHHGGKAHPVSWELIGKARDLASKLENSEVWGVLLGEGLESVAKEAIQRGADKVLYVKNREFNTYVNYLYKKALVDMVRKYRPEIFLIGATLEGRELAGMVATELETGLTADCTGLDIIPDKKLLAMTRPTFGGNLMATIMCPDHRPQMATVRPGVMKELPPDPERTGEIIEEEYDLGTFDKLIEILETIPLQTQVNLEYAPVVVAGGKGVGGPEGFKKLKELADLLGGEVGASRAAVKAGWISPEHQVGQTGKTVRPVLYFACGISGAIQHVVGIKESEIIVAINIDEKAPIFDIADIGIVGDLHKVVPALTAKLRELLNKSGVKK
T1 sequence (Q9X1L6 2-285): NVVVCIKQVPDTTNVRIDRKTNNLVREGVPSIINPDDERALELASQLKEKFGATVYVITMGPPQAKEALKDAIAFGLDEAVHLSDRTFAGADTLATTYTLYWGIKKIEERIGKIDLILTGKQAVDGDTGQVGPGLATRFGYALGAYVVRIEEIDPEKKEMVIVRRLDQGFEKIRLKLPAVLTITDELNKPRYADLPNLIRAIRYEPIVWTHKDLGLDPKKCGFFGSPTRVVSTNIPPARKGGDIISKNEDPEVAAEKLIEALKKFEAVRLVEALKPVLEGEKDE
T1 sequence (Q9X1L7 1-338): as the sequence (Q9X1L7 entry or part of it) above
T1 sequence (Q9X1L8 1-438): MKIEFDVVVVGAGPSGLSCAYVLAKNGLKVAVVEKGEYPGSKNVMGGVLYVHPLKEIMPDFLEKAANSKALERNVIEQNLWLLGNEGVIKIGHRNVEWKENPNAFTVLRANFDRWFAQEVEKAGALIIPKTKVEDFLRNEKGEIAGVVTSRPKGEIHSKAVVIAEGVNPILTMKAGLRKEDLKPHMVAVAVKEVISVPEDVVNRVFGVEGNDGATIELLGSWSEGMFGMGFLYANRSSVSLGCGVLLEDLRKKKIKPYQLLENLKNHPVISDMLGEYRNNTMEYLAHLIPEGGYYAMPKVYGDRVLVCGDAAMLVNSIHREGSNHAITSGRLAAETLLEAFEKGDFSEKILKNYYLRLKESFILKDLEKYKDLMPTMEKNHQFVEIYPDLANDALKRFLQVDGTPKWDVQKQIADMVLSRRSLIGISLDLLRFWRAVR
T1 sequence (Q9X1L9 1-92 partner): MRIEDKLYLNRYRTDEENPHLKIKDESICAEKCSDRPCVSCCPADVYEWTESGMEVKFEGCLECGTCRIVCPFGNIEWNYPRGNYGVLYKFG

For `Cc1cc2nc3c(=O)[nH]c(=O)nc-3n(C[C@H](O)[C@H](O)[C@H](O)COP(=O)(O)OP(=O)(O)OC[C@H]3O[C@@H](n4cnc5c(N)ncnc54)[C@H](O)[C@@H]3O)c2cc1C` [FAD], the “FAD released by 1% SDS and quantified by absorbance” value (EtfABCX [1]) was “approximately three and two molecules of FAD per EtfABCX supermonomer and EtfAB heterodimer, respectively” and the “FAD released by 1% SDS and quantified by absorbance” value (EtfAB [2]) was “approximately three and two molecules of FAD per EtfABCX supermonomer and EtfAB heterodimer, respectively”.

For `NC(=O)C1=CN([C@@H]2O[C@H](COP(=O)(O)OP(=O)(O)OC[C@H]3O[C@@H](n4cnc5c(N)ncnc54)[C@H](O)[C@@H]3O)[C@@H](O)[C@H]2O)C=CC1` [NADH], the “anaerobic SEC-SAXS with in-line UV-visible spectroscopy (flavin reduction, compa)” value (EtfAB [3]; excess NADH in running buffer) was “EtfAB in the presence of excess NADH indicated that its FAD cofactors were fully reduced”.

For `NC(=O)c1ccc[n+]([C@@H]2O[C@H](COP(=O)(O)OP(=O)(O)OC[C@H]3O[C@@H](n4cnc5c(N)ncnc54)[C@H](O)[C@@H]3O)[C@@H](O)[C@H]2O)c1` [NAD^+], the “anaerobic SEC-MALS-SAXS with in-line UV-visible spectroscopy” value (EtfABCX [4]) was “likely due to the formation of an EtfABCX-NAD^+ complex” and the “anaerobic SEC-SAXS with in-line UV-visible spectroscopy (flavin reduction, compa)” value (EtfAB [3]; excess NAD+ in running buffer, as-purified enzyme) was “EtfAB in the presence of NAD^+ led the enzyme into a more extended state”.

Work on “Thermotoga maritima Fix/EtfABCX supermonomer (ABCX heterotetramer protomer) (complex)” yielded a stoichiometry N [5] of 4 and a stoichiometry N [6] of 2.
